{"source": "patent US20020004042A1", "about": "“Gene therapy for pulmonary edema using adenovirus vectors encoding a beta2adrenergic receptor gene” (priority 2000, published 2002)", "key": {"Na,K-ATPase": {"system": "Na,K-ATPase", "assay": "Western analysis of Na,K-ATPase α1 and β1 in basolateral membrane of A549 cells", "type": "cell-based, human", "conditions": "ICI 118,551 10^-6 M 10 minutes prior to procaterol", "method": "To test if β2AR overexpression can affect active Na^+ transport in vitro, A549 cells were treated as described above prior to measurement of ouabain-sensitive Na^+ transport (an index of Na,K-ATPase activity). […] Additional studies done to establish the mechanisms responsible for this finding included quantification of Na,K-ATPase α1 and β1 expression in the basolateral membrane of A549 cells."}, "β2AR": {"target": "T1, β2AR (Rattus norvegicus, UniProt P10608)", "T1 construct": "from tissue; host or cells: apical membranes of rat peripheral lung", "T1 sequence (P10608 whole entry)": "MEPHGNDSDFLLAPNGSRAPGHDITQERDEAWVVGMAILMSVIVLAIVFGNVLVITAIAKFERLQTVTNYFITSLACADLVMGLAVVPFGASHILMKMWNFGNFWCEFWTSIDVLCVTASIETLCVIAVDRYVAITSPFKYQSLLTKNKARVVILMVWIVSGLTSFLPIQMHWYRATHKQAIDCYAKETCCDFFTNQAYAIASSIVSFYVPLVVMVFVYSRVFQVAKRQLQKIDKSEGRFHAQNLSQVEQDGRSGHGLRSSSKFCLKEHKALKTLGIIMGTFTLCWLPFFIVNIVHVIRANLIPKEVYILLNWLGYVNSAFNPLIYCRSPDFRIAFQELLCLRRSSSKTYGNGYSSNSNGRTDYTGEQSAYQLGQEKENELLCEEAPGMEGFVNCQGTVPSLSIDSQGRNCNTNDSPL", "assay": "Western analysis of β2AR in apical membranes of peripheral lung of procaterol-treated rats", "type": "in vivo", "conditions": "procaterol 100 μg every 8 hours by gavage", "method": "To test if agonist-induced loss of receptor function and/or expression occurs in the alveolar epithelium normal rats were treated with the β2AR specific agonist procaterol (100 μg every 8 hours by gavage). Lung liquid clearance was then measured using a fluid-filled isolated lung preparation in the presence of procaterol (10^−6 M instilled into the alveolar airspace and perfused through the pulmonary artery) beginning 4 hours after the first dose. […] Thus, the loss of catecholamine responsive lung liquid clearance in these rats is likely due, in part, to receptor downregulation."}, "rat lungs": {"system": "rat lungs", "assay": "Lung liquid clearance, fluid-filled isolated perfused rat lung preparation", "type": "in vivo, Sprague-Dawley rats", "conditions": "procaterol 100 μg every 8 hours by gavage", "method": "To test if β2AR gene transfer could increase transgene expression and if overexpression could affect the transepithelial osmotic gradient necessary to achieve pulmonary edema clearance, normal Sprague-Dawley rats were infected with the vectors disclosed in Example 1. 250-300 gm male Sprague-Dawley rats were lightly sedated with pentobarbital prior to orotracheal intubation with a 14 g angiocatheter. Adenovirus (4×10^9 pfu) was suspended in […] of a 50% surfactant/50% dialysis buffer mixture (Surfanta, Abbott Laboratories, Columbus, Ohio). […]\nSeven days after infection, whole lung transgene expression was measured via Western analysis using a rabbit anti-human β2AR antibody and chemiluminescent detection method. […] To test for in vivo transgene function lung liquid clearance was measured using a well-established isolated lung preparation. […]\nTo test if agonist-induced loss of receptor function and/or expression occurs in the alveolar epithelium normal rats were treated with the β2AR specific agonist procaterol (100 μg every 8 hours by gavage). Lung liquid clearance was then measured using a fluid-filled isolated lung preparation in the presence of procaterol (10^−6 M instilled into the alveolar airspace and perfused through the pulmonary artery) beginning 4 hours after the first dose. […]"}}, "data": [{"smiles": "Cc1ccc(OCC(O)C(C)NC(C)C)c2c1CCC2", "note": "(stereo not shown) [ICI 118,551]", "values": [{"measurement": "effect of antagonist pre-treatment on recruitment of Na,K-ATPase to the cell membrane", "setting": "Na,K-ATPase", "value": "blocked"}]}, {"smiles": "CCC(NC(C)C)C(O)c1ccc(O)c2[nH]c(=O)ccc12", "note": "(stereo not shown) [procaterol]", "values": [{"measurement": "β2AR expression in apical membranes of peripheral lung", "setting": "β2AR", "value": "marked reductions"}, {"measurement": "lung liquid clearance in presence of procaterol after procaterol pretreatment, 4 hours", "setting": "rat lungs; 4 hours after first dose, 10^-6 M during measurement", "value": "not different from untreated controls"}, {"measurement": "lung liquid clearance in presence of procaterol after procaterol pretreatment, 24 hours", "setting": "rat lungs; 24 hours", "value": "remained less than naive rats"}]}]}
